# Source: patent US10745399B2 (priority 2015, dated 2020)
# Target: human recombinant ATM (Homo sapiens (Human), UniProt Q13315)
# Assay: ATM kinase assay (IC50 ATM), TR-FRET
# Assay type: biochemical
# Settings: 10 μM ATP, p53 substrate
# Protocol: ATM Kinase Assay—Determination of ATM Inhibition (IC50 ATM):
# The IC50 value was determined with the aid of a biochemical ATM kinase assay. The assay consists of two steps: the enzymatic reaction and the detection step. Firstly, ATM (ataxia telangiectasia mutated) protein and the test substance are incubated at different concentrations with addition of substrate protein p53 and ATP. ATM mediates the phosphorylation of p53 at several positions, including at amino acid S15. The amount of phosphorylated p53 is determined with the aid of specific antibodies and the TR-FRET technique. The enzymatic ATM assay is carried out as TR-FRET (HTRF™, Cisbio Bioassays) based 384-well assay. In the first step, purified human recombinant ATM (human ATM, full length, GenBank ID NM_000051, expressed in a mammal cell line) is incubated in assay buffer for 15 minutes with the ATM inhibitor in various concentrations and without test substance as negative or neutral control. The assay buffer comprises 25 mM HEPES pH 8.0, 10 mM Mg(CH3COO)2, 1 mM MnCl2, 0.1% BSA and 0.01% Brij® 35, 5 mM dithiothreitol (DTT). […] In the second step, purified human recombinant cmyc-labelled p53 (human p53, full length, GenBank ID BC003596, expressed in Sf21 insect cells) and ATP are added, and the reaction mixture is incubated at 22° C. for 30-35 minutes. The pharmacologically relevant assay volume is 5 μl. […] The enzymatic reaction is stopped by addition of EDTA. […] After incubation, usually for 2 hours (between 1.5 and 15 h), for signal development, the plates are analysed in a plate reader (EnVision, PerkinElmer) using TRF mode (and with laser excitation). […] The measurement data were processed by means of Genedata Screener software. IC50 determinations are carried out, in particular, by fitting a dose/action curve to the data points by means of nonlinear regression analysis.
# Chain of human recombinant ATM (Q13315 whole entry): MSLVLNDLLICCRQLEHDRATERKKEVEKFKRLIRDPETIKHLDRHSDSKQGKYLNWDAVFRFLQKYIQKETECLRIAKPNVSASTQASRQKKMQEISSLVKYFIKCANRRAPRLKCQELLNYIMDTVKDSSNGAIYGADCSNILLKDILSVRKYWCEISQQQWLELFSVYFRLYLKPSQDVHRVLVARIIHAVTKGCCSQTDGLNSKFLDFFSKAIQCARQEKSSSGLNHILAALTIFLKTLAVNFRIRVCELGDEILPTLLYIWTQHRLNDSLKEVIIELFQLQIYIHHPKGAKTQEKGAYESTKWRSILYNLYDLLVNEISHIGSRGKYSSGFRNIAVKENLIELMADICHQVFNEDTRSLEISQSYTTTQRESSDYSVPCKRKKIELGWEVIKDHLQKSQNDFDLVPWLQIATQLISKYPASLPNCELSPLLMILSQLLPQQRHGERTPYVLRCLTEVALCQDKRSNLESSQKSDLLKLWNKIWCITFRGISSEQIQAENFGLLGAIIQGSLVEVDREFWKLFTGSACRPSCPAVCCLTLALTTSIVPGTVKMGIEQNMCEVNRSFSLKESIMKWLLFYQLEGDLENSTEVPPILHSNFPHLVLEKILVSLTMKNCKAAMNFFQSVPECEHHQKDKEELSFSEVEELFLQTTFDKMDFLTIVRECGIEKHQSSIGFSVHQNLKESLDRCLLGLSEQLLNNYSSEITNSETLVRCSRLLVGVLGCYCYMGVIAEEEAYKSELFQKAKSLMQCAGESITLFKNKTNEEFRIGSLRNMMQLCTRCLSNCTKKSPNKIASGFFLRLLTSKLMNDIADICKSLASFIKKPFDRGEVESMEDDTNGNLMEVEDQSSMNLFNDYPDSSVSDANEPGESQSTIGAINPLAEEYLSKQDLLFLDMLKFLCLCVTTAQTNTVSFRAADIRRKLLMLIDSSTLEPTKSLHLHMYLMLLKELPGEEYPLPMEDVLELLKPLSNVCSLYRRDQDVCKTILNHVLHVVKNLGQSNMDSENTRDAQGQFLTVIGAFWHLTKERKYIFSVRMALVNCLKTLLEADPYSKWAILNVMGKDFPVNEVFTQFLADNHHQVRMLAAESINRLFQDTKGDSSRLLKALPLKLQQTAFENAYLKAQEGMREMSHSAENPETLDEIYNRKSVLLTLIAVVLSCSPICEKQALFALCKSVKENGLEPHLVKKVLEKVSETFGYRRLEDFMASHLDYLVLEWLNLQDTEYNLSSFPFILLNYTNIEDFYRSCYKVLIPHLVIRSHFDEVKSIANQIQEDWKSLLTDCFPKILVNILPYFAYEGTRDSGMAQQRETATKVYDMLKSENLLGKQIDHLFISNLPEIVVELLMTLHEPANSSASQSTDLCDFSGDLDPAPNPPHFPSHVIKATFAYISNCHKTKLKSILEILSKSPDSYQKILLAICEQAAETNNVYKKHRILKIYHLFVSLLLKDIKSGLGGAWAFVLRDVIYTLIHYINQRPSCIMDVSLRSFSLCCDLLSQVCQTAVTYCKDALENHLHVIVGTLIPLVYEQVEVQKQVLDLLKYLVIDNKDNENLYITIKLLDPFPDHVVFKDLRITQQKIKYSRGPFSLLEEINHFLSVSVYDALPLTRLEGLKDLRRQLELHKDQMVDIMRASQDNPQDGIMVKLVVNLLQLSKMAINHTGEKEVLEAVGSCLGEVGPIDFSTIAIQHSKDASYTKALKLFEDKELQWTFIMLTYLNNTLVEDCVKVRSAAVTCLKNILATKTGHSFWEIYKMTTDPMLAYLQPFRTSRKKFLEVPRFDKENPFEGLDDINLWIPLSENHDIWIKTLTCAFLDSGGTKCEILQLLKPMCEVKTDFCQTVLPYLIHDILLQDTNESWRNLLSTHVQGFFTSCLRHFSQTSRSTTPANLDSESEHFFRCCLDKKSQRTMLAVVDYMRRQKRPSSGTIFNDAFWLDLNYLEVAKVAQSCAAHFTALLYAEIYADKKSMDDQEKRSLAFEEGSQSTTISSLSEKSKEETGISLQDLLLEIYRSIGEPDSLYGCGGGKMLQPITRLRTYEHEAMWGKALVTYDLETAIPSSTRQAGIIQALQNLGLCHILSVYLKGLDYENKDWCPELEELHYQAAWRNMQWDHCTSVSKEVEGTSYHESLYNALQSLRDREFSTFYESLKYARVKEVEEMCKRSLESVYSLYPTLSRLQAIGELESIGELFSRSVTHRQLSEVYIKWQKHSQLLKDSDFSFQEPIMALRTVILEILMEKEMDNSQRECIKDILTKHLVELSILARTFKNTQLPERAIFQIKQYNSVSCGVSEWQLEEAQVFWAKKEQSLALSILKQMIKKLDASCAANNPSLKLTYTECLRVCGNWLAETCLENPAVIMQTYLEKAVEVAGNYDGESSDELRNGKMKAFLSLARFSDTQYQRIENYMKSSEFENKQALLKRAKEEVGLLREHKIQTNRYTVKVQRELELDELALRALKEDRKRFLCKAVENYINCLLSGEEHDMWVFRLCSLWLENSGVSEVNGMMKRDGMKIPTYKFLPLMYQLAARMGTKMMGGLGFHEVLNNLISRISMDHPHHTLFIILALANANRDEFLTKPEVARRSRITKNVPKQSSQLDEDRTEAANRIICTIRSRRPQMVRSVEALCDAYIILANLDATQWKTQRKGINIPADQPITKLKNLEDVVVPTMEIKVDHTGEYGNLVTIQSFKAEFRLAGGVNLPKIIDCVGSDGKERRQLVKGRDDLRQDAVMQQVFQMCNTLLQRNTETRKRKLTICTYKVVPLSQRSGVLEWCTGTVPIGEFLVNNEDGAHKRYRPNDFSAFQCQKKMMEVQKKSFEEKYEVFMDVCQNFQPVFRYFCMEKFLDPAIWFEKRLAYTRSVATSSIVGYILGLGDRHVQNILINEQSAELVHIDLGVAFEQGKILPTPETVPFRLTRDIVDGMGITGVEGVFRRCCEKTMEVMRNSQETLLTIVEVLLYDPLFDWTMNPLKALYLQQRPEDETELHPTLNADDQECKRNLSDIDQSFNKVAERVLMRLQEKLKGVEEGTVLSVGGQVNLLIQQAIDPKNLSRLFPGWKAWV
row,SMILES,IC50 [nM]
1,"COc1cc2ncc3c(c2cc1-c1cnn(C)c1)n(-c1ncc(F)cc1F)c(=O)n3C [Compound Example 1, 1-(3,5-Difluoropyridin-2-yl)-7-methoxy-3-methyl-8-(1-methyl-1H-pyrazol-4-yl)-1,3-dihydroimidazo[4,5-c] quinolin-2-one]",< 1
2,"COc1cc2ncc3c(c2cc1-c1cnn(C)c1)n(-c1ncc(OCCO)cc1F)c(=O)n3C [compound 67, 1-[3-Fluoro-5-(2-hydroxy-ethoxy)-2-pyridyl]-7-methoxy-3-methyl-8-(1-methylpyrazol-4-yl)imidazo-[4,5-c]quinolin-2-one]",< 1
3,"COc1cc2ncc3c(c2cc1-c1cnn(C)n1)n(-c1c(C)cncc1F)c(=O)n3C [compound 103, 1-(3-Fluoro-5-methylpyridin-4-yl)-7-methoxy-3-methyl-8-(2-methyl-2H-1,2,3-triazol-4-yl)-1,3-dihydroimidazo-[4,5-c]quinolin-2-one]",< 50

# Test system: CHK2 phosphorylation (phospho-Thr68) in HCT116 cells
# Assay: Cellular pCHK2 assay, bleomycin-induced phosphorylation of CHK2 (phospho-Thr68), immunofluorescence high content
# Assay type: cell-based
# Settings: Homo sapiens, HCT-116; HCT116 cells, 10 μM bleomycin, 4 h; read-out: IC50 (pCHK2)
# Description: For the identification of substances which inhibit the phosphorylation of the protein kinase CHK2 at the amino acid threonine 68, an immunofluorescence-based “high content” analysis assay was used in HCT116 cells.
# In vitro cell-based immunofluorescence assay for the identification of inhibitors of bleomycin-induced phosphorylation of CHK2 (phospho-Thr68) in the human colon carcinoma cell line HCT116:
# HCT116 cells are sown out in a defined cell density in 384-well plates in culture medium (DMEM high glucose, 2 mM GlutaMax, 1 mM Na pyruvate, 10% FCS) and incubated overnight at 37° C. and 10% of CO2. On the following day, the test substances are added in a defined concentration range (1 nM to 30 μM) in combination with 10 μM bleomycin, where the concentration of the solvent DMSO is kept constant at 0.5%. After incubation for four hours at 37° C. and 10% of CO2, the cells are fixed (5 min, 4% formaldehyde in PBS), permeabilised (10 min, 0.2% Triton X-100 in PBS) and, after blocking of nonspecific binding sites (10% goat serum, 1% BSA in PBS), incubated overnight at 4° C. with a specific anti-pCHK2 antibody (cell signalling #2661). pCHK2 (Thr68) is determined using an Alexa488-labelled secondary anti-rabbit IgG antibody. Parallel staining of DNA with propidium iodide enables determination of the cell count. The pCHK2 signal is detected using a high-content imager (Molecular Devices IMX Ultra) and automatic image analysis using the MetaXpress software belonging to the instrument. The number of cell nuclei which have a pCHK2 signal above a defined background is determined.
row,SMILES,IC50 [nM]
1,"COc1cc2ncc3c(c2cc1-c1cnn(C)n1)n(-c1c(C)cncc1F)c(=O)n3C [compound 103, 1-(3-Fluoro-5-methylpyridin-4-yl)-7-methoxy-3-methyl-8-(2-methyl-2H-1,2,3-triazol-4-yl)-1,3-dihydroimidazo-[4,5-c]quinolin-2-one]",200 to 1000
2,"COc1ccc(-c2cc3c(cc2OC)ncc2c3n(-c3c(F)cncc3OC)c(=O)n2C)cn1 [compound 137, 1-(3-Fluoro-5-methoxy-pyridin-4-yl)-7-methoxy-8-(6-methoxypyridin-3-yl)-3-methyl-1,3-dihydroimidazo-[4,5-c]quinolin-2-one]",200 to 1000

# Target: mTOR (human) (Homo sapiens (Human), UniProt P42345)
# Assay: mTOR (human) radiometric kinase assay
# Assay type: biochemical
# Settings: IC50 (ATM) at least 2000 times higher compared with IC50 (mTOR)
# Protocol: mTOR (human) was incubated with 50 mM HEPES pH 7.5, 1 mM EGTA, 0.01% Tween 20, 2 mg/ml of the substrate, 3 mM MnCl2 and [γ-^33P-ATP] (specific activity approximately 500 cpm/pmol, concentration as necessary). The reaction was initiated by addition of MgATP solution. After incubation at room temperature for 40 minutes, the reaction was stopped by addition of 3% phosphoric acid. 10 μl of the reaction solution were then transferred dropwise onto a P30 filtermat and washed three times for 5 min in 75 mM phosphoric acid and once in methanol, dried and evaluated by means of liquid scintillation counting.
row,SMILES,"ratio IC50 (ATM):IC50(mTOR), selectivity with respect to mTOR"
1,"COc1cnc(-n2c(=O)n(C)c3cnc4cc(OC)c(-c5c[nH]nc5C)cc4c32)c(F)c1 [compound 122, 1-(3-Fluoro-5-methoxy-pyridin-2-yl)-7-methoxy-3-methyl-8-(3-methyl-1H-pyrazol-4-yl)-1,3-dihydro-imidazo[4,5-c]quinolin-2-one]",at least 2000 times
2,"CCc1cncc(F)c1-n1c(=O)n(C)c2cnc3cc(OC)c(-c4cn[nH]n4)cc3c21 [compound 125, 1-(3-Ethyl-5-fluoropyridin-4-yl)-7-methoxy-3-methyl-8-(2H-1,2,3-triazol-4-yl)-1,3-dihydroimidazo[4,5-c] quinolin-2-one]",at least 2000 times
3,"CCc1cncc(F)c1-n1c(=O)n(C)c2cnc3cc(OC)c(-c4cn(C)nn4)cc3c21 [compound 126, 1-(3-Ethyl-5-fluoropyridin-4-yl)-7-methoxy-3-methyl-8-(1-methyl-1H-1,2,3-triazol-4-yl)-1,3-dihydroimidazo-[4,5-c]quinolin-2-one]",at least 2000 times
4,"COc1cc2ncc3c(c2cc1-c1ccc2nc(C)[nH]c2c1)n(-c1c(F)cncc1OC)c(=O)n3C [compound 136, 1-(3-Fluoro-5-methoxy-pyridin-4-yl)-7-methoxy-3-methyl-8-(2-methyl-3H-benzoimidazol-5-yl)-1,3-dihydroimidazo[4,5-c]-quinolin-2-one]",at least 2000 times
5,"CNC(=O)c1cnc(-n2c(=O)n(C)c3cnc4cc(OC)c(-c5cnn(C)c5)cc4c32)c(F)c1 [compound 138, 5-Fluoro-6-[7-methoxy-3-methyl-8-(1-methyl-1H-pyrazol-4-yl)-2-oxo-2,3-dihydroimidazo[4,5-c]-quinolin-1-yl]-N-methyl-nicotinamid]",at least 2000 times
6,"COc1cc2ncc3c(c2cc1-c1cnn(C)c1)n(-c1cn(C)nc1F)c(=O)n3C [compound 141, 1-(3-Fluoro-1-methyl-1H-pyrazol-4-yl)-7-methoxy-3-methyl-8-(1-methyl-1H-pyrazol-4-yl)-1,3-dihydro-imidazo[4,5-c]quinolin-2-one]",at least 2000 times
7,"COc1cc2ncc3c(c2cc1-c1cn(C)nc1C)n(-c1c(F)cncc1OC(F)F)c(=O)n3C [compound 147, 1-(3-Difluoromethoxy-5-fluoropyridin-4-yl)-8-(1,3-dimethyl-1H-pyrazol-4-yl)-7-methoxy-3-methyl-1,3-dihydroimidazo[4,5-c]-quinolin-2-one]",at least 2000 times
8,"CCc1cnccc1-n1c(=O)n(C)c2cnc3cc(OC)c(-c4cnn(CC)c4)cc3c21 [compound 157, 8-(1-Ethyl-1H-pyrazol-4-yl)-1-(3-ethylpyridin-4-yl)-7-methoxy-3-methyl-1,3-dihydroimidazo[4,5-c] quinolin-2-one]",at least 2000 times
9,"COc1ccc(-c2cc3c(cc2OC)ncc2c3n(-c3cn(C)nc3F)c(=O)n2C)cn1 [compound 159, 1-(3-Fluoro-1-methyl-1H-pyrazol-4-yl)-7-methoxy-8-(6-methoxypyridin-3-yl)-3-methyl-1,3-dihydroimidazo-[4,5-c]quinolin-2-one]",at least 2000 times
10,"COc1cc2ncc3c(c2cc1-c1cnn(C)c1)n(-c1ncc(OCS(C)(=O)=O)cc1F)c(=O)n3C [compound 201, 1-(3-Fluoro-5-methyl-sulfonylmethoxypyridin-2-yl)-7-methoxy-3-methyl-8-(1-methyl-1H-pyrazol-4-yl)-1,3-dihydroimidazo[4,5-c]-quinolin-2-one]",at least 2000 times

# Target: PI3K p110β/p85α (human) (Homo sapiens (Human), UniProt P42338)
# Assay: PI3K p110β/p85α (human), non-radioactive assay (HTRF)
# Assay type: biochemical
# Settings: IC50 (ATM) at least 2000 times higher compared with IC50 (PI3Kbeta)
# Protocol: PI3K p110β/p85a (Human), Non-Radioactive Assay
# PI3K p110β/p85α (human) was incubated in an assay buffer comprising 10 μM phosphatidylinositol 4,5-bisphosphate and MgATP (concentration as necessary). The reaction was initiated by addition of MgATP solution. After an incubation time of 30 min at room temperature, the reaction was stopped by addition of a solution consisting of EDTA and biotinylated phosphatidylinositol 3,4,5-trisphosphate. Finally, the detection buffer, consisting of a europium-labelled anti-GST monoclonal antibody, a GST-labelled GRP1 PH domain and streptavidin allophycocyanin, was added. The plate was read out via homogeneous time-resolved fluorescence (HTRF) and the corresponding signals were evaluated via the formula HTRF=10000×(Em665 nm/Em620 nm).
# Chain of PI3K p110β/p85α (human) (P42338 whole entry): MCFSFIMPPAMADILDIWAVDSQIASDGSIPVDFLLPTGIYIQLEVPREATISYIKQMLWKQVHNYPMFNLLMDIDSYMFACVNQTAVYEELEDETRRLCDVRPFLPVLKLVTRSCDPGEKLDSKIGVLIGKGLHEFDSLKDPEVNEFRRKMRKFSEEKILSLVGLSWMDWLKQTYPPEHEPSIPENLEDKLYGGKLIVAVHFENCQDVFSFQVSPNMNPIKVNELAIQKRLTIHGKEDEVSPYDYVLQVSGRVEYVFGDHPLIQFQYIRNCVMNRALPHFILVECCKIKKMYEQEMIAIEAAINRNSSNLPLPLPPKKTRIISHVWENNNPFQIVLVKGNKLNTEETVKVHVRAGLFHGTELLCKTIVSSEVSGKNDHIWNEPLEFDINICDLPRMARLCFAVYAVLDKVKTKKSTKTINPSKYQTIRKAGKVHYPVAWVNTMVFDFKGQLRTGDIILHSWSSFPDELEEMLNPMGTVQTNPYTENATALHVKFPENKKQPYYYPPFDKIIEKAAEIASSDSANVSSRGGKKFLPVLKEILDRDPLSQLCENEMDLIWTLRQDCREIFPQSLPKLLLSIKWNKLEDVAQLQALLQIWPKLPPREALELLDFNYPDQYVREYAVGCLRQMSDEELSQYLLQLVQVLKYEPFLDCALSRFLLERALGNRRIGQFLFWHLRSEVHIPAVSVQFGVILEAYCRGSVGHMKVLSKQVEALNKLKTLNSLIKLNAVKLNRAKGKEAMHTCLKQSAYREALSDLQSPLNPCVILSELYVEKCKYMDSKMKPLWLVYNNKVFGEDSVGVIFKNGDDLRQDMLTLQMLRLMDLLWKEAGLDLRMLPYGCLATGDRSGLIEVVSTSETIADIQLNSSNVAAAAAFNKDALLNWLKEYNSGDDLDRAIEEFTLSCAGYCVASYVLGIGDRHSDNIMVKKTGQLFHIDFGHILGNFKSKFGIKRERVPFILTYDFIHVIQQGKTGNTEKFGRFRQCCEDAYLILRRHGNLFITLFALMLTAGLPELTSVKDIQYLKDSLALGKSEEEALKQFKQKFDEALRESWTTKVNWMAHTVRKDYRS
# Chain of PI3K p110β/p85α (human) (P27986 whole entry partner): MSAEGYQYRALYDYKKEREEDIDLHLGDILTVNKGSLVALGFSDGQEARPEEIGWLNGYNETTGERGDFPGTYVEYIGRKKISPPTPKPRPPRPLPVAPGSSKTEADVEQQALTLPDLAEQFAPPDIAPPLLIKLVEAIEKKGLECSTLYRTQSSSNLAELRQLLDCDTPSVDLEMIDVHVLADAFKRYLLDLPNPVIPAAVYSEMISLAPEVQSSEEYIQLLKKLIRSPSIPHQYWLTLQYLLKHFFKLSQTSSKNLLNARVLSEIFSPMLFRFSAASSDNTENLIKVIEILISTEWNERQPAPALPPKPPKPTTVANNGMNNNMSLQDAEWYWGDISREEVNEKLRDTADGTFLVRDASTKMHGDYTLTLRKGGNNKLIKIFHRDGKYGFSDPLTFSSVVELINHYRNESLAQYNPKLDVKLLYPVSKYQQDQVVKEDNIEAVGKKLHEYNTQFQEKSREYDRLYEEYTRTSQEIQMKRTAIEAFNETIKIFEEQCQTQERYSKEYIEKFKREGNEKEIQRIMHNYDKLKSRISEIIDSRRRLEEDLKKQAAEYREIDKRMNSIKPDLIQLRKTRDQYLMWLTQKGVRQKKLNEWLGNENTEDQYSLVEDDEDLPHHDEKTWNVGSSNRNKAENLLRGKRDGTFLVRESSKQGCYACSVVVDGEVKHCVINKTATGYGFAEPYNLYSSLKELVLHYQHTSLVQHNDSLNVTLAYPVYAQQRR
row,SMILES,"ratio IC50 (ATM):IC50(PI3Kbeta), selectivity with respect to PI3Kbeta"
1,"COc1ccc(-c2cc3c(cc2OC)ncc2c3n(-c3c(F)cncc3OC)c(=O)n2C)cn1 [compound 137, 1-(3-Fluoro-5-methoxy-pyridin-4-yl)-7-methoxy-8-(6-methoxypyridin-3-yl)-3-methyl-1,3-dihydroimidazo-[4,5-c]quinolin-2-one]",at least 2000 times
